Biological target: T1, human AMPK α2β2γ3 (Homo sapiens, UniProt O43741+P54646+Q9UGI9)
T1 construct: expressed in transfected cells; host or cells: HEK293AD cells, MaxCyte bulk electroporation
Test: Primary cellular assay: γ3 associated phospho-Thr172 AMPK detection (custom pAMPK Surefire AlphaLISA) in α2β2γ3 bulk transiently transfected HEK293 cells
Assay type: cell-based
Conditions: activation of human AMPK α2β2γ3 (γ3 pThr172 AMPK signal) in transiently transfected HEK293 cells, 20 minutes compound incubation; for Emax: 20 min, read-out: Assay GMean Asy. Max (%); for EC50: geometric mean EC50, read-out: Assay GMean EC50
Outline: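 Transiently co-transfected (α2/β2/γ3 plasmids, electroporation) HEK293AD cells, plated 2 days in low-glucose DMEM+10% FBS, treated 20 min with compounds (11-point half-log dilutions). Lysates read by modified AlphaLISA capturing γ3 with pThr172 antibody detection. % effect relative to 30 μM HPE and DMSO; EC50 and Emax from curve fit.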

[1] = geometric mean of the asymptotic max

T1 sequence (P54646 whole entry): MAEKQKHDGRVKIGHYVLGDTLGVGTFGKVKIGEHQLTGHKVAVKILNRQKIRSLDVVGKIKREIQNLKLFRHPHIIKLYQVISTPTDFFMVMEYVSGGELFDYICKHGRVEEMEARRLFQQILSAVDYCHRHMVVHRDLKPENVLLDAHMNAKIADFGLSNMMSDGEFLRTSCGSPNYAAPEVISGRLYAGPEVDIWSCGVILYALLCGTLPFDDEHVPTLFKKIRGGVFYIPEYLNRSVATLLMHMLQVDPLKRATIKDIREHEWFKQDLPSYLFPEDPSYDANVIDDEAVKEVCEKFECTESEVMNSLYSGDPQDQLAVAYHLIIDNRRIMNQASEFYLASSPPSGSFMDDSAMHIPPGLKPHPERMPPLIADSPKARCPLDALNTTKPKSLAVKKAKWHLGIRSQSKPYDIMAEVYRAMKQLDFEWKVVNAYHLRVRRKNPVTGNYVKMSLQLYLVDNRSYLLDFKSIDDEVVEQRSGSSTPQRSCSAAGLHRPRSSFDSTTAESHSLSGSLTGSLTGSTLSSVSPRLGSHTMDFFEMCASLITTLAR
T1 sequence (O43741 whole entry): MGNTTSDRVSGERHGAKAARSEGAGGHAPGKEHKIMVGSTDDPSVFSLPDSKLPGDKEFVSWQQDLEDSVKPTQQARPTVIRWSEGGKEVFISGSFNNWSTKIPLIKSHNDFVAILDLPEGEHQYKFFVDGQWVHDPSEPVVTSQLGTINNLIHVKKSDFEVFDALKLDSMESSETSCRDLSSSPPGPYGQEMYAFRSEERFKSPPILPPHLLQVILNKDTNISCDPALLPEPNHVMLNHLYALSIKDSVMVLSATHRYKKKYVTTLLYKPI
T1 sequence (Q9UGI9 whole entry): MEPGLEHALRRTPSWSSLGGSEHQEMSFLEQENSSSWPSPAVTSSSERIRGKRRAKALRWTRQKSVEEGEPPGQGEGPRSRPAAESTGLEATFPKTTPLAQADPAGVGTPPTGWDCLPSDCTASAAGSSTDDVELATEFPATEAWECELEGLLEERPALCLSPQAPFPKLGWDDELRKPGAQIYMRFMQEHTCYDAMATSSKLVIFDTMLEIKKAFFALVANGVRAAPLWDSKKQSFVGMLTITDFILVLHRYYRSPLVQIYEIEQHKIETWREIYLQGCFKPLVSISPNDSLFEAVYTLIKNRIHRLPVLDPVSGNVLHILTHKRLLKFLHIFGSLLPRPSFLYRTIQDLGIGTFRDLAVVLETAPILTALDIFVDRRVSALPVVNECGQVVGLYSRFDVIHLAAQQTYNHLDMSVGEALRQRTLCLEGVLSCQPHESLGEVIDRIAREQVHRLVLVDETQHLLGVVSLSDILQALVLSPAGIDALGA

Compound | Emax [1] [%] | EC50 [nM] | Assay GMean Asy. Max (%) [1] [%]
CC1(c2cccc(Cl)c2F)CN(c2ncccc2F)C(=O)c2cnc(NC3CN(C(=O)C4(O)CC4)C3)nc21 (single isomer, unassigned) [Example 27, 8-(3-Chloro-2-fluorophenyl)-6-(3-fluoropyridin-2-yl)-2-{[1-(1-hydroxycyclopropane-1-carbonyl)azetidin-3-yl]amino}-8-methyl-7,8-dihydropyrido[4,3-d]pyrimidin-5(6H)-one] | 174 | 177 | 
CC1(c2cccc(F)c2F)CN(c2ccccc2)C(=O)c2cnc(NC3CN(C(=O)CN4CCCC4)C3)nc21 (stereo not drawn) [Example 33, 8-(2,3-Difluorophenyl)-8-methyl-6-phenyl-2-({1-[(pyrrolidin-1-γ1)acetyl]azetidin-3-yl}amino)-7,8-dihydropyrido[4,3-d]pyrimidin-5(6H)-one] | 104 | 906 | 
C[C@]1(c2cccc(Cl)c2F)CN(c2ccc([C@@H]3COCCN3)cc2)C(=O)c2cnc(NC3CN(C(=O)[C@@H]4C[C@@H]4F)C3)c(F)c21 [compound 53, (4R)-4-(3-chloro-2-fluorophenyl)-5-fluoro-6-({1-[(1S,2S)-2-fluorocyclopropane-1-carbonyl]azetidin-3-yl}amino)-4-methyl-2-{4-[(3R)-morpholin-3-yl]phenyl}-3,4-dihydro-2,7-naphthyridin-1(2H)-one] | 91 | 131 | 
Cn1cc(F)c(N2CC(C)(c3cccc(Cl)c3F)c3c(ccc(NC4CN(CC(=O)N5CCOCC5)C4)c3F)C2=O)n1 (stereo not drawn) [compound 91, 4-(3-chloro-2-fluorophenyl)-5-fluoro-2-(4-fluoro-1-methyl-1H-pyrazol-3-yl)-4-methyl-6-({1-[2-(morpholin-4-yl)-2-oxoethyl]azetidin-3-yl}amino)-3,4-dihydroisoquinolin-1(2H)-one,from P18 (ENANT-2)] | 99.7 | 168 | 

The next molecules have a lower EC50 than those just listed; values first:

Emax [1] [%] | EC50 [nM] | Assay GMean Asy. Max (%) [1] [%] | Compound
58.2 | 63.8 |  | Cn1cc(F)c(N2C[C@](C)(c3cccc(Cl)c3F)c3c(cnc(NC4CN(C(=O)[C@H]5C[C@@H]5F)C4)c3F)C2=O)n1 [Example 8, (4R)-4-(3-Chloro-2-fluorophenyl)-5-fluoro-6-({1-[(1R,2S)-2-fluorocyclopropane-1-carbonyl]azetidin-3-yl}amino)-2-(4-fluoro-1-methyl-1H-pyrazol-3-yl)-4-methyl-3,4-dihydro-2,7-naphthyridin-1(2H)-one]
 | 60.5 | 85.5 | Cn1cc(F)c(N2C[C@](C)(c3cccc(Cl)c3F)c3c(cnc(NC4CN(C(=O)C5CCC(F)(F)CN5)C4)c3F)C2=O)n1 (single isomer, unassigned) [compound 96]
79.5 | 58.1 |  | Cn1ccc(N2C[C@](C)(c3cccc(Cl)c3F)c3c(cnc(NC4CN(C(=O)[C@@H]5C[C@@H]5F)C4)c3F)C2=O)n1 [compound 54, (4R)-4-(3-chloro-2-fluorophenyl)-5-fluoro-6-({1-[(1S,2S)-2-fluorocyclopropane-1-carbonyl]azetidin-3-yl}amino)-4-methyl-2-(1-methyl-1H-pyrazol-3-yl)-3,4-dihydro-2,7-naphthyridin-1(2H)-one]
90 | 55.1 |  | Cn1cc(F)c(N2C[C@](C)(c3cccc(Cl)c3F)c3c(cnc(NC4CN(C(=O)CC(F)(F)F)C4)c3F)C2=O)n1 [compound 63, (4R)-4-(3-chloro-2-fluorophenyl)-5-fluoro-2-(4-fluoro-1-methyl-1H-pyrazol-3-yl)-4-methyl-6-{[1-(3,3,3-trifluoropropanoyl)azetidin-3-yl]amino}-3,4-dihydro-2,7-naphthyridin-1(2H)-one]
77.9 | 43.5 |  | Cn1cc(F)c(N2C[C@](C)(c3cccc(Cl)c3F)c3c(cnc(NC4CN(C(=O)CN5CCCC5)C4)c3F)C2=O)n1 [Example 12, (4R)-4-(3-Chloro-2-fluorophenyl)-5-fluoro-2-(4-fluoro-1-methyl-1H-pyrazol-3-yl)-4-methyl-6-({1-[(pyrrolidin-1-γ1)acetyl]azetidin-3-yl}amino)-3,4-dihydro-2,7-naphthyridin-1(2H)-one]
